Experiment [1] deals with T1, AtBFN2 (Arabidopsis thaliana, UniProt Q9C9G4).
T1 sequence (Q9C9G4 28-290): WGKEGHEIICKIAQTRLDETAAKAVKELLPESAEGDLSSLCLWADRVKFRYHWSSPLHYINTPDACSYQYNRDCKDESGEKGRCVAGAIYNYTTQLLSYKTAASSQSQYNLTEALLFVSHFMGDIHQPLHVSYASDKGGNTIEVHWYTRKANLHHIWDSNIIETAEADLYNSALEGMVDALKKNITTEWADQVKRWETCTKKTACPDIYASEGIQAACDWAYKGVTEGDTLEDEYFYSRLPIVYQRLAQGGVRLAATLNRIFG
Also on record: gene ENDO2. The settings on record: active site, tri-zinc cluster; crystals grown with 0.2 M Na2HPO4, 0.1 M Hepes pH 7.5.

In experiment [2] the target is T1, AtBFN2. The experiment in a line: acid-soluble ssDNA release, A260. In kind it is biochemical. Details: gene ENDO2; ENDO2 cDNA with C-terminal 6xHis tag, overexpressed in transgenic Arabidopsis seedlings; three Zn ions. The settings on record: heat-denatured ssDNA substrate; 100 mM Tris pH 7, 37 °C, 10 min; 1 mM Na3VO4.

In the case of `O=P(O)(O)O` [phosphate], in experiment [1], the “X-ray crystal structure, 2.0 Å” value is listed as “have a phosphate anion displacing all coordinating waters, except Wat3 (Fig. 2D)”.
As to `[O]=[V]([OH])([OH])[OH]` [vanadate], the “% inhibition at 1 mM” value in experiment [2] is listed as 80%.

For orientation: % inhibition means the drop in the measured response relative to a control, in per cent.
